Where two headings read alike, the source gives them in different places.
Columns and labels:
Test in all cases: Two-step fluorescence assay for determination of IC50
Type in all cases: biochemical
[1] = biological target: T1, HDAC8 (Homo sapiens, UniProt Q9BY41)
T1 sequence (Q9BY41 1-377): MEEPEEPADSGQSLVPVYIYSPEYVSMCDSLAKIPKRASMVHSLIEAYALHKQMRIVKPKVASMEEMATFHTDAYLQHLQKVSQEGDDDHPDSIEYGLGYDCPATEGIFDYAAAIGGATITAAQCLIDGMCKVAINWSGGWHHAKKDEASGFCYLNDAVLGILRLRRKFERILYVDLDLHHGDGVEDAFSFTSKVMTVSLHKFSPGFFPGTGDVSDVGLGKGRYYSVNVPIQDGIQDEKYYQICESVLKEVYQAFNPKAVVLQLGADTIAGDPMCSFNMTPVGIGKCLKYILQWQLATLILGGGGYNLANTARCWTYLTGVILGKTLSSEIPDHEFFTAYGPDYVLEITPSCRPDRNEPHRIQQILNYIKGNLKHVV
Description: (§1) In order to evaluate the inhibitory characteristics of example compounds of the invention, IC50 values were determined for such compounds. […] A two-step assay was used for this purpose.
(§2) To obtain the IC50 value for an individual compound/HDAC pair, a two-step assay can be performed based on a fluorescence signal. In principle, an ε-acetylated lysine substrate is deacetylated by histone-deacetylases in the first step. Trypsin releases detectable 7-amino-4-methylcoumarin (ex = excitation wavelength: 390 nm, em = emission wavelength: 460 nm) by cleaving the substrate at the deacetylated lysine in a subsequent reaction^[9]. The enzyme activity is inhibited by a suitable HDACi.
(§3) The obtained data are interpreted using a four parameter fit. Based on this fit, the IC50 value can be estimated. Analysis ot the data and calculation of the IC50 values was accomplished using a four-parameter logistic model protocol as previously described by Vølund^[16]. For nonlinear fits the Levenberg-Marquardt algorithm was applied^[17],[18]. […] Table 1: IC50 values in µM for synthesized compounds of the invention with a perfluorinated linker. […] HDAH = HDAC-like amidohydrolase

[2] = biological target: T2, HDAC6 (Homo sapiens, UniProt Q9UBN7)
T2 sequence (Q9UBN7 1-1215): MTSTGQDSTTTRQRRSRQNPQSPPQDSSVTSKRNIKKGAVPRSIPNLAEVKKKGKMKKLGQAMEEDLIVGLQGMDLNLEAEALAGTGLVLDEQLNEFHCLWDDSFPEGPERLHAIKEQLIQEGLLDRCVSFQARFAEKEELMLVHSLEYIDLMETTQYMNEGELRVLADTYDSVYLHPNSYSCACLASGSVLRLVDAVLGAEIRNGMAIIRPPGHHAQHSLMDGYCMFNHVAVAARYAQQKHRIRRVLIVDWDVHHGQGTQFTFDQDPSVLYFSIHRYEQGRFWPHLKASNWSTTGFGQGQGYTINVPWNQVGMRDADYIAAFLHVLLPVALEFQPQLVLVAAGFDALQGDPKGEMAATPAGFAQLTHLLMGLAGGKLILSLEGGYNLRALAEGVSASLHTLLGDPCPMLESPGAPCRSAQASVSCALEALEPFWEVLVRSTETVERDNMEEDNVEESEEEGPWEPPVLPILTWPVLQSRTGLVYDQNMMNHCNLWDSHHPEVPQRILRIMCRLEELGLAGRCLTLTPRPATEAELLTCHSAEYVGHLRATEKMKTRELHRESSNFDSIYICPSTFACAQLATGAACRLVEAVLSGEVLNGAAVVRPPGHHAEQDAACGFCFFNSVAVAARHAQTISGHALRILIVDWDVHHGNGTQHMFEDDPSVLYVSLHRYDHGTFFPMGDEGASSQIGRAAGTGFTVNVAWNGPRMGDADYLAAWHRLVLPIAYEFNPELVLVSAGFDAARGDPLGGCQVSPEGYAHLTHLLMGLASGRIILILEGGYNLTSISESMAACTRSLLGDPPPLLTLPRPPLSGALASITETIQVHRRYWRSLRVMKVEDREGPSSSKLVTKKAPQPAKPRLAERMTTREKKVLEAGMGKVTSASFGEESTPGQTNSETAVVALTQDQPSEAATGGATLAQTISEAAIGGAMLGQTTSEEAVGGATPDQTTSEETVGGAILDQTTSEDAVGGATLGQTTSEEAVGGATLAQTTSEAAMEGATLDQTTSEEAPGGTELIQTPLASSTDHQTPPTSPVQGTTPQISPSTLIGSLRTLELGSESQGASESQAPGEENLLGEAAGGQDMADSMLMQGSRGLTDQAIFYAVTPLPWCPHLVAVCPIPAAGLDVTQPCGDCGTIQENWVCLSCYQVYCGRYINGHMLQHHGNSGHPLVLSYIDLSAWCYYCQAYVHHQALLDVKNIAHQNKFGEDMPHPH
Description: as §1, §2, §3

[3] = biological target: T3, HDAC7 (Homo sapiens, UniProt Q8WUI4)
T3 sequence (Q8WUI4 1-952): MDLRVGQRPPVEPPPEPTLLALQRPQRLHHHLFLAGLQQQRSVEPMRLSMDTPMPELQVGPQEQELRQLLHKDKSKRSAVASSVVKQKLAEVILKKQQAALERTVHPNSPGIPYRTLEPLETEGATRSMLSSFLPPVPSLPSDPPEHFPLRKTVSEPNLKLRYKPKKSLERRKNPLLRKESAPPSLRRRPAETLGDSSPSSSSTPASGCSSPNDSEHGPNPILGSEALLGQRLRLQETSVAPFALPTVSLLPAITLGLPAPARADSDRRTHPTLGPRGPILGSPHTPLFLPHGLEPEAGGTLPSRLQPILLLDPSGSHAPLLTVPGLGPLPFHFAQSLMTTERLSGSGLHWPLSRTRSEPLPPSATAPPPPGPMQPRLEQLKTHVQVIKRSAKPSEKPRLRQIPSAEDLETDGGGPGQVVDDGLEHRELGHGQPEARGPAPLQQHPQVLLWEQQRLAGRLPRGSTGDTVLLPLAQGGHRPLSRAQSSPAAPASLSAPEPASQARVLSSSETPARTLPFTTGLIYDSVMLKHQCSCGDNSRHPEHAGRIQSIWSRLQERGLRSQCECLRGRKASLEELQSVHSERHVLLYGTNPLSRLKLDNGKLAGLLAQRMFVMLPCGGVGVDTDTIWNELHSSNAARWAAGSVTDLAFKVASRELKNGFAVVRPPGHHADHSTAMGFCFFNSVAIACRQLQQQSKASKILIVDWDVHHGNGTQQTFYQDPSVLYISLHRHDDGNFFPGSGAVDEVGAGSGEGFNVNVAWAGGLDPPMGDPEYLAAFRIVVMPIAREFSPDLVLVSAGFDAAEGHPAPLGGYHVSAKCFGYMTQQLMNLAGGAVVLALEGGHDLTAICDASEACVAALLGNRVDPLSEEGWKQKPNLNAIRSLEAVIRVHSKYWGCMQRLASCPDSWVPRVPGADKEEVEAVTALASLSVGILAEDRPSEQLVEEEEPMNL
Description: as §1, §2, §3

[4] = biological target: HDAC1 (Homo sapiens, UniProt Q13547)
Chain of HDAC1 (Q13547 whole entry): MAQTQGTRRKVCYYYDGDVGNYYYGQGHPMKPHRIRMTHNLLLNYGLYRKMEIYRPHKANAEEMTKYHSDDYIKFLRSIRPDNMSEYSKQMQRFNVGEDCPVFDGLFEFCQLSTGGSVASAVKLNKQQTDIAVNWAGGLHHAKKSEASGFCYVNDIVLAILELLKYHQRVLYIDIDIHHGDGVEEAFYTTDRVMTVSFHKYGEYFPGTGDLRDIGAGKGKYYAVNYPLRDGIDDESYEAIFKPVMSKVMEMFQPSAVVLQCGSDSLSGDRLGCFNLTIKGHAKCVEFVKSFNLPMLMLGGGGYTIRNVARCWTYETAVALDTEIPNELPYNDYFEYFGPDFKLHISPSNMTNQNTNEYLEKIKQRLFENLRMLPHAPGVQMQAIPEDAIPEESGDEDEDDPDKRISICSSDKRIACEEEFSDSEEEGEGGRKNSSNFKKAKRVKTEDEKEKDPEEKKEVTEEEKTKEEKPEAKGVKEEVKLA
Description: as §1, §2, §3

[5] = biological target: T4, HDAH (Alcaligenes sp., UniProt Q70I53); conditions: HDAC-like amidohydrolase; ε-acetylated lysine substrate, trypsin release of 7-amino-4-methylcoumarin; four parameter fit; read-out: IC50 values HDAH
T4 sequence (Q70I53 1-369): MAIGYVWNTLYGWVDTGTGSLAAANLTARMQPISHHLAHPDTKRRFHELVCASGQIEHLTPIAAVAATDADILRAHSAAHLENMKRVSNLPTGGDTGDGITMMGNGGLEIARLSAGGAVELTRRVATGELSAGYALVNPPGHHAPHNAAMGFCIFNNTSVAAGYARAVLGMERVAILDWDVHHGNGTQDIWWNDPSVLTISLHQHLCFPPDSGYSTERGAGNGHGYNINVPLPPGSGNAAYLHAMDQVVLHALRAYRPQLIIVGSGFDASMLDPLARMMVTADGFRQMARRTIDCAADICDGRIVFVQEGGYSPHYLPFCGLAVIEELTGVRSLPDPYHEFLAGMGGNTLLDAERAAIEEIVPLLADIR
Description: as §1, §2, §3

[6] = ε-acetylated lysine substrate, trypsin release of 7-amino-4-methylcoumarin, four parameter fit, read-out: IC50 values HDAC6
[7] = ε-acetylated lysine substrate, trypsin release of 7-amino-4-methylcoumarin, four parameter fit, read-out: IC50 values HDAC7
[8] = ε-acetylated lysine substrate, trypsin release of 7-amino-4-methylcoumarin, four parameter fit, read-out: IC50 values HDAC1
[9] = ε-acetylated lysine substrate, trypsin release of 7-amino-4-methylcoumarin, four parameter fit, read-out: IC50 values HDAC8

Row | IC50 [3, 7] [µM] | IC50 [4, 8] [µM] | IC50 [1, 9] [µM] | SMILES | IC50 [1] [µM] | IC50 [2, 6] [µM] | IC50 [5] [µM] | IC50 [3] [µM] | IC50 [4] [µM] | IC50 [2] [µM]
1 | 21.5 | 21.8 | 76.2 | CC(=O)Nc1ccc(NC(=O)C(F)(F)C(F)(F)C(F)(F)C(F)(F)C(F)(F)C(F)(F)C(=O)NO)cc1 [LU224, 2,2,3,3,4,4,5,5,6,6,7,7-Dodecafluorooctanedioic acid (4-acetylaminophenyl)-amide hydroxyamide] | – | 10.5 | 3.41 | – | – | –
2 | 1.77 | 3.31 | 2.1 | O=C(NO)C(F)(F)C(F)(F)C(F)(F)C(F)(F)C(F)(F)C(F)(F)C(=O)Nc1nc(-c2ccccc2)cs1 [LU235, 2,2,3,3,4,4,5,5,6,6,7,7-Dodecafluorooctanedioic acid hydroxyamide (4-phenylthiazol-2-yl)amide] | – | 6.47 | 5.11 | – | – | –
3 | – | – | – | O=C(NO)C(F)(F)C(F)(F)C(F)(F)C(F)(F)C(F)(F)C(F)(F)C(=O)Nc1ccccc1 [LU210, 2,2,3,3,4,4,5,5,6,6,7,7-Dodecafluorooctanedioic acid hydroxyamide phenyl-amide] | – | 12.5 | 1.67 | 14.8 | 17.9 | –
4 | 42.2 | > 100 | > 100 | O=C(NO)C(F)(F)C(F)(F)C(F)(F)C(F)(F)C(F)(F)C(F)(F)C(=O)Nc1ccc(-c2cn(-c3ccccc3)nn2)cc1 [LU 233, 2,2,3,3,4,4,5,5,6,6,7,7-Dodecafluorooctanedioic acid hydroxyamide {4-[1-phenyl-1H-(1,2,3)triazol-4-yl]phenyl}amide] | – | 9.81 | 16.9 | – | – | –
5 | 6.86 | 16.9 | 75.8 | O=C(NO)C(F)(F)C(F)(F)C(F)(F)C(F)(F)C(F)(F)C(F)(F)C(=O)Nc1ccc(I)cc1 [LU227, 2,2,3,3,4,4,5,5,6,6,7,7-Dodecafluorooctanedioic acid hydroxyamide (4-iodo-phenyl)amide] | – | 5.13 | 0.91 | – | – | –

Row | SMILES | IC50 [3, 7] [µM] | IC50 [4, 8] [µM] | IC50 [1, 9] [µM] | IC50 [1] [µM] | IC50 [2, 6] [µM] | IC50 [5] [µM] | IC50 [3] [µM] | IC50 [4] [µM] | IC50 [2] [µM]
6 | O=C(NO)C(F)(F)C(F)(F)C(F)(F)C(F)(F)C(F)(F)C(F)(F)C(=O)Nc1ccc(-c2cnnn2-c2ccccc2)cc1 [LU236, 2,2,3,3,4,4,5,5,6,6,7,7-Dodecafluorooctanedioic acid hydroxyamide [4-(1-phenyl-1H-[1,2,3]triazol-5-yl)phenyl]amide] | 16.4 | 83.1 | – | > 100 | 56.6 | 10.4 | – | – | –
7 | Cc1ccc(NC(=O)C(F)(F)C(F)(F)C(F)(F)C(F)(F)C(F)(F)C(F)(F)C(=O)NO)cc1 [LU222, 2,2,3,3,4,4,5,5,6,6,7,7-Dodecafluorooctanedioic acid hydroxyamide 4-methyl-phenylamide] | – | 16.3 | – | 87.6 | > 100 | 0.86 | 84.8 | – | –
8 | Cc1ccc(NC(=O)C(F)(F)C(F)(F)C(F)(F)C(F)(F)C(F)(F)C(F)(F)C(=O)NO)cc1C [LU228, 2,2,3,3,4,4,5,5,6,6,7,7-Dodecafluorooctanedioic acid (3,4-dimethylphenyl)-amide hydroxyamide] | – | – | 22.8 | – | 7.8 | 0.66 | 5.51 | 10 | –
9 | O=C(NO)C(F)(F)C(F)(F)C(F)(F)C(F)(F)C(F)(F)C(F)(F)C(=O)Nc1ccc2ccc3cccc4ccc1c2c34 [LU234, 2,2,3,3,4,4,5,5,6,6,7,7-Dodecafluorooctanedioic acid hydroxyamide pyren-1-ylamide] | > 100 | 28.3 | – | 77.8 | 20.2 | 1.48 | – | – | –
10 | CCc1cccc(NC(=O)C(F)(F)C(F)(F)C(F)(F)C(F)(F)C(F)(F)C(F)(F)C(=O)NO)c1 [LU232, 2,2,3,3,4,4,5,5,6,6,7,7-Dodecafluorooctanedioic acid (3-ethylphenyl)amide hydroxyamide] | 4.97 | – | 21.3 | – | – | 9.18 | – | 19.9 | 1.55

Reference: patent EP2486923B1, “Histone deacetylase (HDAC) inhibiting compounds and method of making same” (Dr. Felix Jäger und Dr. Stefan Drinkuth Laborgemeinschaft …, priority 2011, dated 2012)
